These results are taken from ChEMBL document CHEMBL5149985, “Discovery of cytotoxic natural products from Red Sea sponges: Structure and synthesis” (Eur J Med Chem, 2021).

Assay [1] has as its system MDA-MB-231. The assay can be described thus: cells. The settings on record: Homo sapiens, MDA-MB-231, 72 h.
Description: Anticancer activity against human MDA-MB-231 cells assessed as inhibition of cell growth measured after 72 hrs by SRB assay
In assay [2] the test system is HT-29. The assay can be described thus: cells. The settings on record: Homo sapiens, HT-29, 72 h.
Description: Anticancer activity against human HT-29 cells assessed as inhibition of cell growth measured after 72 hrs by SRB assay
Assay [3] has as its system A549. The assay can be described thus: cells. The settings on record: Homo sapiens, A549, 72 h.
Description: Anticancer activity against human A549 cells assessed as inhibition of cell growth measured after 72 hrs by SRB assay
In assay [4] the test system is HCT-116. The assay can be described thus: Anticancer activity against human HCT-116 cells assessed as inhibition of cell growth incubated for 72 hrs by MTT assay. Type of assay: functional, cell-based. To be noted: HCT-116, 72 h.
Assay [5] has as its system P388. The assay can be described thus: Anticancer activity against mouse P388 cells assessed as cell growth inhibition. Type of assay: functional, cell-based.
A further assay concerns SK-MEL-28. The assay can be described thus: Anticancer activity against human MEL-28 cells assessed as cell growth inhibition. Type of assay: functional, cell-based.
Assay [6] has as its system HT-29. As to the kind of experiment: Anticancer activity against human HT-29 cells assessed as cell growth inhibition. Type of assay: functional, cell-based.
Assay [7] deals with A549. The assay can be described thus: Anticancer activity against human A549 cells assessed as cell growth inhibition. Type of assay: functional, cell-based.
For assay [8], the system named is HT-29. As to the kind of experiment: Antiproliferative activity against human HT-29 cells assessed as cell growth inhibition incubated for 72 hrs by SRB assay. Type of assay: functional, cell-based. The settings on record: HT-29, 72 h. (In general: In SRB staining, fixed cells bind dye roughly in proportion to their protein.)
For assay [9], the system named is MDA-MB-231. The assay can be described thus: Antiproliferative activity against human MDA-MB-231 cells assessed as cell growth inhibition incubated for 72 hrs by SRB assay. Type of assay: functional, cell-based. To be noted: MDA-MB-231, 72 h.
For assay [10], the system named is A549. The assay can be described thus: Antiproliferative activity against human A549 cells assessed as cell growth inhibition incubated for 72 hrs by SRB assay. Type of assay: functional, cell-based. To be noted: A549, 72 h.
In assay [11] the test system is HCT-116. As to the kind of experiment: Anticancer activity against human HCT-116 cells assessed as inhibition of cell growth by MTS assay. Type of assay: functional, cell-based. In general terms: Formazan colour is commonly taken as a measure of viable cells.
Assay [12] deals with A549. As to the kind of experiment: Anticancer activity against human A549 cells assessed as inhibition of cell growth by dilution assay. Type of assay: functional, cell-based.
Assay [13] concerns P388. As to the kind of experiment: Anticancer activity against mouse P388 cells assessed as inhibition of cell growth by dilution assay. Type of assay: functional, cell-based.
Assay [14] concerns HT-29. The assay can be described thus: Anticancer activity against human HT-29 cells assessed as inhibition of cell growth by dilution assay. Type of assay: functional, cell-based.
The subject of a further assay is HepG2. The assay can be described thus: Anticancer activity against human HepG2 cells assessed as inhibition of cell growth incubated for 48 hrs by crystal violet staining based microplate reader analysis. Type of assay: functional. To be noted: HepG2, 48 h.
The subject of assay [15] is HT-29. The assay can be described thus: Anticancer activity against human HT-29 cells assessed as inhibition of cell growth. Type of assay: functional, cell-based.
The subject of assay [16] is P388. As to the kind of experiment: Anticancer activity against mouse P388 cells assessed as inhibition of cell growth. Type of assay: functional, cell-based.
In assay [17] the test system is A549. The assay can be described thus: Anticancer activity against human A549 cells assessed as inhibition of cell growth. Type of assay: functional, cell-based.
The next assay concerns HeLa. The assay can be described thus: Anticancer activity against human HeLa cells assessed as inhibition of cell growth. Type of assay: functional, cell-based.
In another assay the test system is Daoy. As to the kind of experiment: Anticancer activity against human Daoy cells assessed as inhibition of cell growth. Type of assay: functional, cell-based.
In assay [18] the test system is L5178Y. As to the kind of experiment: Anticancer activity against mouse L5178Y assessed as cell growth inhibition by [3H]-thymidine assay relative to control. Type of assay: functional.
Assay [19] has as its system L5178Y. The assay can be described thus: Anticancer activity against mouse L5178Y assessed as cell growth inhibition by [3H]-thymidine assay. Type of assay: functional, cell-based.
For another assay, the system named is KB 3-1. The assay can be described thus: Anticancer activity against human KB 3-1 cells assessed as inhibition in cell growth. Type of assay: functional, cell-based.
The next assay has as its system PC-3. As to the kind of experiment: Anticancer activity against human PC-3 cells assessed as inhibition of cell growth. Type of assay: functional, cell-based.
The test system of a further assay is MCF7. The assay can be described thus: Anticancer activity against human MCF7 cells assessed as inhibition of cell growth. Type of assay: functional, cell-based.

Bounds are passed on as bounds.

One may read the IC50 as the concentration that inhibits the measured activity by half. Turning to `CC[C@H](C)[C@@H]1NC(=O)[C@@H](C(O)C(C)C)NC(=O)[C@H](Cc2ccc(O)cc2)NC(=O)[C@H]([C@H](C)O)NC(=O)[C@@H](C)NC(=O)[C@H](CC(C)C)NC(=O)[C@H](Cc2ccc(O)cc2)NC(=O)[C@H](Cc2ccccc2)NC1=O` (stereo partly drawn), the IC50 in the assay on MDA-MB-231 [1] came out at 29000 nM; in the assay with HT-29 [2], 30000 nM; in the assay on A549 [3] it was 29000 nM.
On to `CC(C)[C@@H](C)/C=C/[C@@H](C)[C@H]1CC[C@H]2C3=C(CC[C@]12C)[C@@]1(C)CC[C@H](O)CC1=CC3=O`, for which the IC50 in the assay on HCT-116 [4] worked out at 40000 nM.
With `C=C1CCC[C@@H]2[C@@](C)(CC[C@@]3(C)CCn4cnc5ncnc(c54)N3O)[C@H](C)CC[C@@]12C`, the IC50 with P388 [5], in the assay with SK-MEL-28, in the assay on HT-29 [6] and in the assay with A549 [7] was 1180 nM in each case.
In the case of `NC(=O)c1cnc(-c2c[nH]c3cc(O)ccc23)c2[nH]c3ccc(O)cc3c12`, the results for the IC50 in the assay with HT-29 [8], with MDA-MB-231 [9] and in the assay with A549 [10] were 45000 nM, 42000 nM and 35000 nM, respectively.
For the compound `CO[C@H]1C[C@H](CC[C@H](C)[C@H](O)[C@H](C)[C@H]2OC(=O)/C=C/C(C)=C/C[C@@H](O)C[C@H]3C=CC[C@@H](C[C@H](OC)[C@@H](C)[C@@H](O)C[C@@H](O)[C@H](C)[C@@H]([C@@H](C)[C@@H](O)[C@@H](C)CC[C@H]4C[C@H](OC)C[C@H](C)O4)OC(=O)/C(C)=C/C[C@H](O)C[C@@H]4C=CC[C@@H](C[C@H](OC)[C@@H](C)[C@@H](O)C[C@@H](O)[C@@H]2C)O4)O3)O[C@@H](C)C1`, in the assay with HCT-116 [11], the IC50 worked out at 365 nM.
In the case of `CC(=O)O[C@H]1CC[C@]2(C)[C@H]3C[C@@H](O)[C@]4(C)C5=C(CC[C@H]4[C@]3(C)CC[C@H]2C1(C)C)COC5=O`, the IC50 with A549 [12] is 2.2 nM; in the assay on P388 [13], 2.2 nM; with HT-29 [14] it was greater than 2.2 nM.
`CC1=CCC2C(CC[C@@]2(C)O)C(C)(C)[C@@H]1CC[C@H]1[C@@](C)(O)CCC2OC(C)(C)C(=O)CC[C@@]21C` (stereo partly drawn): in the assay on HepG2, the IC50 was 6.9 nM.
As to `CC1=C(CCC(C)(O)/C=C/C[C@@]2(C)CC[C@H]([C@@H](C)C(=O)O)OO2)C(C)(C)CCC1` (stereo partly drawn), the IC50 in the assay with HT-29 [15], in the assay with P388 [16] and in the assay with A549 [17] was greater than 2.4 nM each time.
On to `O=C(O)CCCC#C/C=C/CC/C=C/C#C/C=C/Br`, for which the IC50 turned out to be 138 nM in the assay with HeLa and 76.5 nM with Daoy.
For `O=Cc1c[nH]c2ccccc12` [3-FORMYLINDOLE], the “inhibition (INH)” value with L5178Y [18] stood at 53%. Moreover, the IC50 in the assay with L5178Y [19] is 69 nM.
Regarding `C=C1CCC[C@@H]2[C@@](C)(CC[C@@]3(C)CCn4cnc5ncnc(c54)N3O)[C@H](C)CC[C@]12C`, the IC50 in the assay with P388 [5] came to 240 nM; in the assay with SK-MEL-28, 240 nM; with HT-29 [6], 120 nM; with A549 [7] it was 120 nM.
Consider `CC1=CCC2C(CC[C@@]2(C)O)C(C)(C)[C@@H]1CC[C@H]1[C@@](C)(O)CCC2OC(C)(C)[C@H](O)CC[C@@]21C` (stereo partly drawn), for which the IC50 in the assay on KB 3-1 worked out at 4.8 nM; in the assay on A549 [17], 8900 nM; with PC-3, 7900 nM.
As to `CO[C@@H]1C[C@H](C)O[C@@H](C(O)C[C@H](C)[C@H](O)[C@H](C)[C@H]2OC(=O)/C=C/C(C)=C/C[C@H](O)C[C@H]3C=CC[C@@H](C[C@H](OC)[C@@H](C)[C@@H](O)C[C@@H](O)[C@H](C)[C@@H]([C@@H](C)[C@@H](O)[C@@H](C)CC[C@H]4C[C@H](OC)C[C@H](C)O4)OC(=O)/C=C/C(C)=C/C[C@H](O)C[C@@H]4C=CC[C@@H](C[C@H](OC)[C@@H](C)[C@@H](O)C[C@@H](O)[C@@H]2C)O4)O3)C1` (stereo partly drawn), in the assay on HCT-116 [11], the IC50 came to 5.6 nM.
On to `COc1cccc2c1C(=O)c1c(O)c3c(c(O)c1C2=O)C[C@@](O)(C(=O)CO)C[C@@H]3O[C@H]1C[C@H](N)[C@H](O)[C@H](C)O1` [DOXORUBICIN], for which the IC50 worked out at 300 nM in the assay with MDA-MB-231 [1], 400 nM in the assay with HT-29 [2] and 350 nM in the assay on A549 [3].
Regarding `CC(C)[C@@H](C)/C=C/[C@@H](C)[C@H]1CC[C@@]23O[C@@]24C(=O)C[C@H]2CC(=O)CC[C@]2(C)[C@H]4CC[C@]13C`, the IC50 in the assay with HCT-116 [4] was 45000 nM.
On to `C=C1CCC[C@@H]2[C@@](C)(CC[C@@]3(C)CC[C@@H]([C@H](C)C(=O)O)OO3)[C@H](C)CC[C@@]12C`, for which the IC50 was 36000 nM with MCF7, 24000 nM with A549 [7] and 44000 nM with PC-3.
